From PubChem BioAssay AID1963428 (Molecular Pharmacology Branch, DTP, NCI, 2024)

Test system: 171881-019-R-J1-PDC complex spheroid growth, % test/control
Assay: Anticancer human tumor 171881-019-R-J1-PDC patient-derived invasive breast carcinoma cell line growth inhibition [Asc]
Details: for IC50: curve of first compound; for viability, T/C: stronger effect = lower value
Method: Multicellular complex tumor spheroid response to apoptosis pathway targeting inhibitors Alrizomadlin, Pelcitoclax, and Dasminapant in combination with a variety of drugs and investigational agents in selected tumor cell lines
The MDM2 inhibitor alrizomadlin, the Bcl-2/Bcl-xL inhibitor pelcitoclax, and the IAPs inhibitor dasminapant were evaluated both individually and in combination with standard of care and investigational anticancer small molecules within a complex spheroid model of solid tumors. . Complex spheroids include a stromal component modeled by human endothelial cells (HUVEC) and fibroblasts modeled by human mesenchymal stem cells (MSCs). The concentration ranges selected for each drug and investigational agent were based upon clinically achievable concentrations if the clinical Cmax of the agent was known.
Compounds. The drugs and investigational agents: alrizomadlin (APG-115; NSC831270), pelcitoclax (APG-1252; NSC835773), dasminapant (APG-1387;NSC834197), TAK-243 (NSC785004), copanlisib (NSC809693), olaparib (NSC753686), talazoparib (NSC767125), cobimetinib (NSC 768068), eltanexor (KPT-8602, NSC 794443), abemaciclib (NSC 768073), sotorasib (NSC818433), adagrasib (NSC 831453), MRTX-1133 (NSC 836407), Iadademestat (ORY1001, NSC 806812), and RMC-4630 (NSC839698), were obtained from the NCI Developmental Therapeutics Program Chemical Repository. The FDA-approved anticancer drug set is available from the Developmental Therapeutics Program at https://dtp.cancer.gov/organization/dscb/obtaining/available plates.htm. […] The stock solutions were prepared in dimethyl sulfoxide (DMSO, Sigma-Aldrich, St. Louis, MO, cat. D2650) at 800-fold the tested concentration and stored at -70 degrees C prior to their use. All drugs and investigational agents were tested over a range starting from a high concentration at or near the clinical Cmax and decreasing in half-log increments. If the clinical Cmax for an agent had not been determined, the highest concentration tested was 10 microM.
The patient-derived cancer (PDC) cell lines include five colon adenocarcinomas: 186277-243-T-J2-PDC, 616215-338-R-J1-PDC, 439559-082-T-J2-PDC, 463943-066-T-J2-PDC, and 519858-162-T-J1-PDC; three pancreatic carcinomas: 323965-272-R-J2-PDC, 521955-158-R6-J3-PDC, and 521955-158-R2-J5-PDC; two uterine sarcomas: 327498-152-R-J2-PDC and 993429-296-R-J1-PDC; two rhabdomyosarcomas: 755483-174-R-J1-PDC and 772245-204-R-J1-PDC; two soft tissue sarcomas: 126254-015-R-J1-PDC and 494315-158-R-J1-PDC; two malignant fibrous histiocytomas: 317291-083-R-J1-PDC and 596521-263-R-J1-PDC; two breast carcinomas: 171881-019-R-J1-PDC and 885512-296-R-J2-PDC; and one ovarian carcinoma: 6556581-035-R-J-PDC were obtained from the NCI PDMR, (https://pdmr.cancer.gov). The established cell lines HSSY-2 synovial sarcoma (RRID:CVCL 8719), SYO-1 synovial sarcoma (RRID:CVCL_7146), MPNST malignant peripheral neural sheath tumor were obtained from the Sloan Kettering Institute. The following established cell lines were purchased from the American Type Culture Collection (ATCC, Manassas, VA), Sor the received from the NCI repository:, PANC-1 pancreatic carcinoma (CRL-1469, RRID:CVCL_0480), OVCAR-5 ovarian carcinoma (RRID:CVCL_1628), OVCAR-8 ovarian carcinoma (RRID:CVCL_1629), , MCF-7 breast carcinoma (CRL-12584, RRID:CVCL_0031), MDA-MB-231 breast carcinoma (CRL-12532, RRID:CVCL_0062), NCI-H1876 small cell lung carcinoma (CRL-5902, RRID:CVCL_1503), NCI-H510A small cell lung carcinoma (HTB-184, RRID:CVCL_1565), NCI-H1417 (CRL-5869, RRID:CVCL_1469), and NCI-H196 small cell lung carcinoma (CRL-5823, RRID:CVCL_1509). Dr. Peter Houghton (Greehey Children's Cancer Research Institute, University of Texas Health Science Center, San Antonio, TX) provided Rh-18 rhabdomyosarcoma (RRID:CVCL_1659). Pooled donor human umbilical vein endothelial cells (HUVEC, Lonza, cat. CC-2519) and human mesenchymal stem cells (hMSC, Lonza, cat. PT-2501) were purchased from Lonza (Walkersville, MD).
Cell Culture. […]
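Wherever viability, T/C is given: spheroids exposed to compounds for 7 days.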

IC50 (second compound 0.03 µM): > 1 µM
IC50 (second compound 0.0949 µM): > 1 µM
IC50 (second compound 0.3 µM): > 1 µM
IC50 (second compound 0.949 µM): > 1 µM
IC50 (second compound 3 µM): > 1 µM
Structure (SMILES): CCN1CCN(Cc2ccc(Nc3ncc(F)c(-c4cc(F)c5nc(C)n(C(C)C)c5c4)n3)nc2)CC1 + CCN1C(C(=O)NC23CCC(C(=O)O)(CC2)CC3)C(c2cccc(Cl)c2F)C2(C(=O)Nc3cc(Cl)ccc32)C12CCCCC2
viability, T/C (second compound 0.03 µM, first compound 0.00316 µM): 97.8%
viability, T/C (second compound 0.03 µM, first compound 0.01 µM): 86.6%
viability, T/C (second compound 0.03 µM, first compound 0.0316 µM): 108%
viability, T/C (second compound 0.03 µM, first compound 0.1 µM): 128%
viability, T/C (second compound 0.03 µM, first compound 0.316 µM): 133%
viability, T/C (second compound 0.03 µM, first compound 1 µM): 133%
viability, T/C (second compound 0.0949 µM, first compound 0.00316 µM): 104%
viability, T/C (second compound 0.0949 µM, first compound 0.01 µM): 96.2%
viability, T/C (second compound 0.0949 µM, first compound 0.0316 µM): 115%
viability, T/C (second compound 0.0949 µM, first compound 0.1 µM): 117%
viability, T/C (second compound 0.0949 µM, first compound 0.316 µM): 144%
viability, T/C (second compound 0.0949 µM, first compound 1 µM): 144%
viability, T/C (second compound 0.3 µM, first compound 0.00316 µM): 109%
viability, T/C (second compound 0.3 µM, first compound 0.01 µM): 115%
viability, T/C (second compound 0.3 µM, first compound 0.0316 µM): 109%
viability, T/C (second compound 0.3 µM, first compound 0.1 µM): 111%
viability, T/C (second compound 0.3 µM, first compound 0.316 µM): 129%
viability, T/C (second compound 0.3 µM, first compound 1 µM): 126%
viability, T/C (second compound 0.949 µM, first compound 0.00316 µM): 114%
viability, T/C (second compound 0.949 µM, first compound 0.01 µM): 119%
viability, T/C (second compound 0.949 µM, first compound 0.0316 µM): 112%
viability, T/C (second compound 0.949 µM, first compound 0.1 µM): 118%
viability, T/C (second compound 0.949 µM, first compound 0.316 µM): 129%
viability, T/C (second compound 0.949 µM, first compound 1 µM): 143%
viability, T/C (second compound 3 µM, first compound 0.00316 µM): 101%
viability, T/C (second compound 3 µM, first compound 0.01 µM): 107%
viability, T/C (second compound 3 µM, first compound 0.0316 µM): 115%
viability, T/C (second compound 3 µM, first compound 0.1 µM): 130%
viability, T/C (second compound 3 µM, first compound 0.316 µM): 146%
viability, T/C (second compound 3 µM, first compound 1 µM): 144%
